Test results published in ChEMBL document CHEMBL1201862, “PubChem BioAssay data set” (2004).
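How tested: cells in 96-well plates exposed to compound for 48 hours at five concentrations. GI50: concentration for 50% inhibition of growth.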 Activity calls are given as the source filed them. No stated cut-off is given here; in the data, active = GI50 up to about 1.1 µM and inactive = higher.

Key:
Test in all cases: inhibition of tumour cell growth, NCI panel, 48 h
A498 = system: A498
ACHN = system: ACHN
COLO 205 = system: COLO 205
EKVX = system: EKVX
HOP-92 = system: HOP-92
Hs-578T = system: Hs-578T
KM12 = system: KM12
LOX IMVI = system: LOX IMVI
M14 = system: M14
MCF7 = system: MCF7
MDA-MB-435 = system: MDA-MB-435
NCI-H23 = system: NCI-H23
NCI-H460 = system: NCI-H460
NCI/ADR-RES = system: NCI/ADR-RES
SK-MEL-5 = system: SK-MEL-5
SN12C = system: SN12C
SNB-19 = system: SNB-19
SNB-75 = system: SNB-75
SR = system: SR
U-251 = system: U-251

Row | SMILES | GI50 (A498) | GI50 (ACHN) | GI50 (COLO 205) | GI50 (EKVX) | GI50 (HOP-92) | GI50 (Hs-578T) | GI50 (KM12) | GI50 (LOX IMVI) | GI50 (M14) | GI50 (MCF7) | GI50 (MDA-MB-435) | GI50 (NCI-H23) | GI50 (NCI-H460) | GI50 (NCI/ADR-RES) | GI50 (SK-MEL-5) | GI50 (SN12C) | GI50 (SNB-19) | GI50 (SNB-75) | GI50 (SR) | GI50 (U-251)
1 | CC(Oc1ccc(Cl)cc1Cl)C(=O)NN1C(=O)CSC1c1ccccc1 (stereo not given) | 42.8 µM (inactive) | 68.5 µM (inactive) | > 100 µM (inactive) | 90.2 µM (inactive) | 27.7 µM (inactive) | 45.6 µM (inactive) | 64 µM (inactive) | 69 µM (inactive) | 54.2 µM (inactive) | 55.3 µM (inactive) | > 100 µM (inactive) | 86.5 µM (inactive) | > 100 µM (inactive) | 86.3 µM (inactive) | 70.8 µM (inactive) | 69.2 µM (inactive) | 47.6 µM (inactive) | 34.7 µM (inactive) | 3.89 µM (inactive) | 76.4 µM (inactive)
2 | C#CC(O)/C=C/CCCCCCC#CC/C=C\CC#CCCCCCCCCC(O)C#C (stereo not given) | 12.6 µM (inactive) | 12.2 µM (inactive) | 2.58 µM (inactive) | 3.51 µM (inactive) | 1.8 µM (inactive) | 20.6 µM (inactive) | 3.05 µM (inactive) | < 0.01 µM (active) | 1.11 µM (active) | 17.4 µM (inactive) | 2.53 µM (inactive) | 1.02 µM (active) | 17.1 µM (inactive) | 3.39 µM (inactive) | 2.68 µM (inactive) | 1.99 µM (inactive) | 20 µM (inactive) | 9.1 µM (inactive) | 2.37 µM (inactive) | 20.5 µM (inactive)
3 | CC(Oc1ccccc1)C(=O)NN (stereo not given) | > 100 µM (inactive) | > 100 µM (inactive) | > 100 µM (inactive) | > 100 µM (inactive) | > 100 µM (inactive) | 34.8 µM (inactive) | > 100 µM (inactive) | > 100 µM (inactive) | > 100 µM (inactive) | > 100 µM (inactive) | > 100 µM (inactive) | > 100 µM (inactive) | > 100 µM (inactive) | > 100 µM (inactive) | > 100 µM (inactive) | > 100 µM (inactive) | > 100 µM (inactive) | > 100 µM (inactive) | > 100 µM (inactive) | > 100 µM (inactive)
4 | CCCCC1NC=Nc2c1ccc1c2[nH]c2ccccc21 (stereo not given) | 14.4 µM (inactive) | 3.61 µM (inactive) | 1.79 µM (inactive) | 3.8 µM (inactive) | 3.94 µM (inactive) | 2.14 µM (inactive) | 5.82 µM (inactive) | 1.94 µM (inactive) | 2.41 µM (inactive) | 1.55 µM (inactive) | 1.88 µM (inactive) | 1.73 µM (inactive) | 2.17 µM (inactive) | 1.95 µM (inactive) | 1.58 µM (inactive) | 2.89 µM (inactive) | 4.58 µM (inactive) | 4.02 µM (inactive) | 1.28 µM (inactive) | 2.95 µM (inactive)
5 | CC(=O)N(C)c1cc(NCc2ccccc2)ccc1OCc1ccccc1 | 16.3 µM (inactive) | 17.3 µM (inactive) | 22.3 µM (inactive) | 18.5 µM (inactive) | 12.7 µM (inactive) | 31.4 µM (inactive) | 21.3 µM (inactive) | 20 µM (inactive) | 22.1 µM (inactive) | 17.9 µM (inactive) | 16.6 µM (inactive) | 24.4 µM (inactive) | 17.9 µM (inactive) | 20.2 µM (inactive) | 18.3 µM (inactive) | 17.5 µM (inactive) | 17.9 µM (inactive) | 22.2 µM (inactive) | 15.5 µM (inactive) | 17.4 µM (inactive)
6 | COC(=O)C1CCC(=O)N1C(c1ccc2c(c1)OCO2)c1ccc2c(c1)OCO2 (stereo not given) | > 100 µM (inactive) | > 100 µM (inactive) | > 100 µM (inactive) | > 100 µM (inactive) | > 100 µM (inactive) | > 100 µM (inactive) | > 100 µM (inactive) | > 100 µM (inactive) | > 100 µM (inactive) | > 100 µM (inactive) | > 100 µM (inactive) | > 100 µM (inactive) | > 100 µM (inactive) | > 100 µM (inactive) | > 100 µM (inactive) | > 100 µM (inactive) | > 100 µM (inactive) | > 100 µM (inactive) | > 100 µM (inactive) | > 100 µM (inactive)
7 | O=C(O)CCCSc1ccccc1 | > 100 µM (inactive) | > 100 µM (inactive) | > 100 µM (inactive) | > 100 µM (inactive) | > 100 µM (inactive) | > 100 µM (inactive) | > 100 µM (inactive) | > 100 µM (inactive) | > 100 µM (inactive) | > 100 µM (inactive) | > 100 µM (inactive) | > 100 µM (inactive) | > 100 µM (inactive) | > 100 µM (inactive) | > 100 µM (inactive) | > 100 µM (inactive) | > 100 µM (inactive) | > 100 µM (inactive) | > 100 µM (inactive) | > 100 µM (inactive)
8 | COC(=O)c1ccc2c(O)c(O)ccc2c1 | 21.3 µM (inactive) | 17.1 µM (inactive) | 13.6 µM (inactive) | 22.8 µM (inactive) | 18.4 µM (inactive) | 27 µM (inactive) | 17.1 µM (inactive) | 2.87 µM (inactive) | 16.4 µM (inactive) | 18.5 µM (inactive) | 1.87 µM (inactive) | 5.28 µM (inactive) | 19.9 µM (inactive) | 20.1 µM (inactive) | 4.45 µM (inactive) | 9.14 µM (inactive) | 14.4 µM (inactive) | 12.8 µM (inactive) | 2.6 µM (inactive) | 14.4 µM (inactive)
9 | CC(C)CCC1(O)O[C@H]2C[C@H]3[C@@H]4CCC5CC(=O)C=C[C@]5(C)[C@H]4CC[C@]3(C)[C@H]2[C@@H]1C (stereo not given in full) | 14.6 µM (inactive) | 13.7 µM (inactive) | 14.4 µM (inactive) | 16.7 µM (inactive) | 3.58 µM (inactive) | 2.82 µM (inactive) | 11.8 µM (inactive) | 12.7 µM (inactive) | 15.9 µM (inactive) | 7.73 µM (inactive) | 11.6 µM (inactive) | 4.26 µM (inactive) | 10.3 µM (inactive) | 15.6 µM (inactive) | 13.7 µM (inactive) | 14.4 µM (inactive) | 17.5 µM (inactive) | 14.3 µM (inactive) | 8.36 µM (inactive) | 10.7 µM (inactive)
